Test results published in ChEMBL document CHEMBL1123800 (J Med Chem, 1987).

Tests used:
Canis familiaris [1] = experiment: Equieffective dose for heart rate in anesthetized dogs for a maximum dose of 3.0 mg/kg. Values ranges from :0.05-0.2; type: functional, Canis lupus familiaris
Canis familiaris [2] = experiment: Equieffective dose for contractility in anesthetized dogs for a maximum dose of 3.0 mg/kg.; type: functional, Canis lupus familiaris
Canis familiaris [3] = experiment: Equieffective dose for mean arterial pressure in anesthetized dogs for a maximum dose of 3.0 mg/kg. Values Ranges From: 0.2-2.4; type: functional, Canis lupus familiaris, Artery
Mustela putorius furo [4] = species: Mustela putorius furo; experiment: Inotropic activity as dose required to cause 20% positive or negative change in contractile force of papillary muscle from ferret (F).; type: functional, Muscle tissue
[5] = target: cAMP phosphodiesterase (Canis familiaris); experiment: Inhibition of canine cardiac cAMP phosphodiesterase (cAMP-PDE)
Canis familiaris [6] = experiment: Equieffective dose for mean arterial pressure in anesthetized dogs for a maximum dose of 0.3 mg/kg. 0.07-0.3; type: functional, Canis lupus familiaris, Artery
Canis familiaris [7] = experiment: Equieffective dose for contractility in anesthetized dogs for a maximum dose of 0.3 mg/kg. Values Ranges From :0.01-0.2; type: functional, Canis lupus familiaris
Canis familiaris [8] = experiment: Equieffective dose for heart rate in anesthetized dogs for a maximum dose of 0.3 mg/kg. Values Ranges From :0.02-0.2; type: functional, Canis lupus familiaris
Canis familiaris [9] = experiment: Equieffective dose for mean arterial pressure in anesthetized dogs for a maximum dose of 1.0 mg/kg. Values Ranges From :0.2,0.4; type: functional, Canis lupus familiaris, Artery
Canis familiaris [10] = experiment: Equieffective dose for contractility in anesthetized dogs for a maximum dose of 1.0 mg/kg. Values Ranges From :0.02-0.05; type: functional, Canis lupus familiaris
Canis familiaris [11] = experiment: Equieffective dose for heart rate in anesthetized dogs for a maximum dose of 1.0 mg/kg. Values Ranges From :0.01-0.8; type: functional, Canis lupus familiaris
Canis familiaris [12] = experiment: Equieffective dose for heart rate in anesthetized dogs for a maximum dose of 3.0 mg/kg. Values Ranges From:0.7-2; type: functional, Canis lupus familiaris
Canis familiaris [13] = experiment: Equieffective dose for contractility in anesthetized dogs for a maximum dose of 3.0 mg/kg. Values Ranges From:0.1-0.4; type: functional, Canis lupus familiaris
Canis familiaris [14] = experiment: Equieffective dose for mean arterial pressure in anesthetized dogs for a maximum dose of 3.0 mg/kg. Values Ranges From:0.1-1.4; type: functional, Canis lupus familiaris, Artery
Canis familiaris [15] = experiment: Equieffective dose for heart rate in anesthetized dogs for a maximum dose of 3.0 mg/kg. Values Ranges From :0.3-1.0; type: functional, Canis lupus familiaris
Canis familiaris [16] = experiment: Equieffective dose for contractility in anesthetized dogs for a maximum dose of 3.0 mg/kg. Values Ranges From :0.2-1.0; type: functional, Canis lupus familiaris
Canis familiaris [17] = experiment: Equieffective dose for mean arterial pressure in anesthetized dogs for a maximum dose of 3.0 mg/kg. Values Ranges From :2.0; type: functional, Canis lupus familiaris, Artery
Canis familiaris [18] = experiment: Equieffective dose for mean arterial pressure in anesthetized dogs for a maximum dose of 1.0 mg/kg. Values Ranges From :0.04-1.0; type: functional, Canis lupus familiaris, Artery
Canis familiaris [19] = experiment: Equieffective dose for contractility in anesthetized dogs for a maximum dose of 1.0 mg/kg. Values Ranges From :0.03-0.07; type: functional, Canis lupus familiaris
Canis familiaris [20] = experiment: Equieffective dose for heart rate in anesthetized dogs for a maximum dose of 1.0 mg/kg. Values Ranges From :0.04-0.3; type: functional, Canis lupus familiaris
Canis familiaris [21] = experiment: Equieffective dose for heart rate in anesthetized dogs for a maximum dose of 3.0 mg/kg. Values Ranges From :0.08-0.6; type: functional, Canis lupus familiaris
Canis familiaris [22] = experiment: Equieffective dose for mean arterial pressure in anesthetized dogs for a maximum dose of 3.0 mg/kg. Values Ranges From :0.6-1.5; type: functional, Canis lupus familiaris, Artery
Canis familiaris [23] = experiment: Equieffective dose for contractility in anesthetized dogs for a maximum dose of 3.0 mg/kg. Values Ranges From :0.05-0.9; type: functional, Canis lupus familiaris
Mustela putorius furo [24] = species: Mustela putorius furo; experiment: Inotropic activity as dose required to cause 20% positive or negative change in contractile force of papillary muscle from ferret (F); type: functional; details: Muscle tissue
Canis familiaris [25] = experiment: Equieffective dose for mean arterial pressure in anesthetized dogs for a maximum dose of 0.1 mg/kg. Values Ranges From :0.02-0.04; type: functional, Canis lupus familiaris, Artery
Canis familiaris [26] = experiment: Equieffective dose for contractility in anesthetized dogs for a maximum dose of 0.1 mg/kg. Values Ranges From :0.005-0.07; type: functional, Canis lupus familiaris
Canis familiaris [27] = experiment: Equieffective dose for heart rate in anesthetized dogs for a maximum dose of 0.1 mg/kg. Values Ranges From :0.009-0.02; type: functional, Canis lupus familiaris

Row | Compound | C20 (Mustela putorius furo [4]) [µM] | IC50 [5] [µM] | further results
1 | Cc1[nH]c(O)nc1C(=O)c1ccc(-n2ccnc2)cc1 | 0.1 | 6 | Heart rate (Canis familiaris [1]): 0.1; Contractility (LV dP/dt) (Canis familiaris [2]): <=0.1; Mean arterial blood pressure (Canis familiaris [3]): 0.9
2 | CCc1[nH]c(O)nc1C(=O)c1ccc(Cn2ccnc2)cc1 | 4 | 30 | –
3 | Cc1[nH]c(=O)c(C#N)cc1-c1ccncc1 [MILRINONE] | 0.57 | – | Mean arterial blood pressure (Canis familiaris [6]): 0.2; Contractility (LV dP/dt) (Canis familiaris [7]): 0.09; Heart rate (Canis familiaris [8]): 0.06
4 | CCCc1nccn1-c1ccc(C(=O)c2[nH]c(O)nc2CC)cc1 | 1 | 29 | –
5 | CCc1[nH]c(O)nc1C(=O)c1ccc(-n2ccnc2)c(C)c1 | 0.05 | 2 | –
6 | CCc1[nH]c(O)nc1C(=O)c1ccc(-n2cc(C)nc2CC)cc1 | 21 | 19 | –
7 | Cc1[nH]c(O)nc1C(=O)c1ccc(-c2ncc[nH]2)cc1 | 1.1 | 27 | –
8 | CCc1[nH]c(O)nc1C(=O)c1ccc(-n2ccnc2C)cc1 | 0.7 | – | Mean arterial blood pressure (Canis familiaris [9]): 0.3; Contractility (LV dP/dt) (Canis familiaris [10]): 0.03; Heart rate (Canis familiaris [11]): 0.3
9 | Cc1[nH]c(O)nc1C(=O)c1ccc(-n2ccnc2C)cc1 | 1 | 30 | Heart rate (Canis familiaris [12]): 0.8; Contractility (LV dP/dt) (Canis familiaris [13]): 0.3; Mean arterial blood pressure (Canis familiaris [14]): 0.6
10 | CCc1[nH]c(O)nc1C(=O)c1ccc(-n2ccnc2C(C)C)cc1 | 16.3 | 40 | –
11 | CSc1ccc(C(=O)c2[nH]c(=O)[nH]c2C)cc1 [ENOXIMONE] | 3.18 | – | Heart rate (Canis familiaris [15]): 0.6; Contractility (LV dP/dt) (Canis familiaris [16]): 0.7; Mean arterial blood pressure (Canis familiaris [17]): 2
12 | Cc1[nH]c(O)nc1C(=O)c1ccc(-n2ccnc2CO)cc1 | 0.4 | 49 | –
13 | Cc1nc(=O)c(C#N)c(NCc2cccnc2)[nH]1 [PELRINONE] | 0.23 | 4 | Mean arterial blood pressure (Canis familiaris [18]): 0.4; Contractility (LV dP/dt) (Canis familiaris [19]): 0.04; Heart rate (Canis familiaris [20]): 0.1
14 | CCc1[nH]c(O)nc1C(=O)c1ccc(-n2ccnc2)cc1C | 0.2 | 4 | –
15 | CCc1[nH]c(O)nc1C(=O)c1cccc(-n2ccnc2)c1 | 0.1 | 23 | –
16 | CCc1[nH]c(O)nc1C(=O)c1ccc(-n2ccnc2CC)cc1 | 0.1 | 25 | –
17 | CCc1[nH]c(O)nc1C(=O)c1ccc(-c2ncc[nH]2)cc1 | 0.4 | 15 | –
18 | O=C1CCC(c2ccc(-n3ccnc3)cc2)=NN1 [IMAZODAN] | 0.3 | – | Heart rate (Canis familiaris [21]): 0.3; Mean arterial blood pressure (Canis familiaris [22]): 1; Contractility (LV dP/dt) (Canis familiaris [23]): 0.3
19 | Cc1cn(-c2ccc(C(=O)c3[nH]c(O)nc3C)cc2)cn1 | 11 | 65 | –
20 | CCc1[nH]c(O)nc1C(=O)c1ccc(-n2cc[n+](C)c2C)cc1 | – | > 100 | C20 (Mustela putorius furo [24]): Not reached
21 | Cc1nc(O)[nH]c1C(=O)c1ccc(-n2c(C)nc(C)c2C)cc1 | – | > 100 | C20 (Mustela putorius furo [24]): Not reached
22 | CCc1[nH]c(O)nc1C(=O)c1ccc(-n2ccnc2)cc1 | 0.063 | 2 | Mean arterial blood pressure (Canis familiaris [25]): 0.03; Contractility (LV dP/dt) (Canis familiaris [26]): 0.02; Heart rate (Canis familiaris [27]): 0.016
23 | Cc1[nH]c(O)nc1C(=O)c1ccc(-n2cnc3ccccc32)cc1 | 11 | 20 | –
24 | CCc1[nH]c(O)nc1C(=O)c1ccc(-n2ccnc2C)cc1C | 1.3 | 73 | –
25 | CCc1[nH]c(O)nc1C(=O)c1ccc(-n2ccnc2C)c(C)c1 | 0.2 | 2 | –
26 | CCc1[nH]c(O)nc1C(=O)c1ccc(-n2ccnc2CCC(C)C)cc1 | 21.7 | 7 | –
